From ChEMBL document CHEMBL2073866, “Cellular pharmacokinetic aspects of reversal effect of itraconazole on P-glycoprotein-mediated resistance of anticancer drugs” (Biol Pharm Bull, 1999)
Blank lines part the entries; values can stand above or below the molecule they belong to.

Experiments:
[1] = molecular target: T1, ATP-dependent translocase ABCB1 (Homo sapiens, UniProt P08183); assay: TP_TRANSPORTER: inhibition of Azidopine photoaffinity labelling (Azidopine: 0.4 uM, Daunorubicin: 400 uM) in membranes from MDR1-expressing LLC-PK1 cells; format: functional, cell membranes, Membrane; conditions: pig, llc-pk1, 400 µM
T1 sequence (P08183 whole entry): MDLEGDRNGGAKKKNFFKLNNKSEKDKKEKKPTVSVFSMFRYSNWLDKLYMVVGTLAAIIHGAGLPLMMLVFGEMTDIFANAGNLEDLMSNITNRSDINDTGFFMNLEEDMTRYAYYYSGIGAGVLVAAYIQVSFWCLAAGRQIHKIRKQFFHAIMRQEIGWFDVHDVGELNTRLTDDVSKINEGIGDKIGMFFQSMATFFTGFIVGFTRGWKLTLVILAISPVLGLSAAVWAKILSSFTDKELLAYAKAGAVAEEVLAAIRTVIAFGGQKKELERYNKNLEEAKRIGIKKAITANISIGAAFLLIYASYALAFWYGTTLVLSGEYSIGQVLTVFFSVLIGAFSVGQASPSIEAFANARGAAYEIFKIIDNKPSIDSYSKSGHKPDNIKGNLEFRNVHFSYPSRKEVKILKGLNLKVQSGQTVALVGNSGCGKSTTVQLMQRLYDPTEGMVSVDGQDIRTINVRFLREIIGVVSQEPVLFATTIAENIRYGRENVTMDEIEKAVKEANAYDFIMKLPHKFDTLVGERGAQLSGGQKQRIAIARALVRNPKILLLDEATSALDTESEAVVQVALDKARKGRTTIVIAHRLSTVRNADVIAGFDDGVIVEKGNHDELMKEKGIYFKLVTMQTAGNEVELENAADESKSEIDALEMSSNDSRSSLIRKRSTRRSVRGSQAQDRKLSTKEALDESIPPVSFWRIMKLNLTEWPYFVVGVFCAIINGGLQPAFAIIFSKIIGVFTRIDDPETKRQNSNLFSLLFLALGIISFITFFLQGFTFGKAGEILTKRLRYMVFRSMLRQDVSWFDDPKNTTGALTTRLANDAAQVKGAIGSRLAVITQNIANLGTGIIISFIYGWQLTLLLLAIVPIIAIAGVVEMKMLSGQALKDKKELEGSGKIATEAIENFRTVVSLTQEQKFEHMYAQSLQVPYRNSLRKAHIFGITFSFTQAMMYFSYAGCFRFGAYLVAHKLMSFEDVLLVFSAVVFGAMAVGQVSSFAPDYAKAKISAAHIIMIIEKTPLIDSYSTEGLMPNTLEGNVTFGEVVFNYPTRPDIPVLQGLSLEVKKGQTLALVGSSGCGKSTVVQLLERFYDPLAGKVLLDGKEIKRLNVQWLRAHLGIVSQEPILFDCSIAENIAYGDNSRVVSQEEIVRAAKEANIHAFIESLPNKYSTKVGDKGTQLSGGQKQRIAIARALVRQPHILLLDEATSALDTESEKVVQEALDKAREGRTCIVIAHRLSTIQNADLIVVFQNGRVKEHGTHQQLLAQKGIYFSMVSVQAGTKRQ

[2] = molecular target: T1, ATP-dependent translocase ABCB1; assay: TP_TRANSPORTER: transepithelial transport (basal to apical) in MDR1-expressing LLC-PK1 cells; format: functional, cell-based; conditions: pig
[3] = molecular target: T1, ATP-dependent translocase ABCB1; assay: TP_TRANSPORTER: inhibition of Azidopine photoaffinity labelling (Azidopine: 0.4 uM, Doxorubicin: 400 uM) in membranes from MDR1-expressing LLC-PK1 cells; format: functional, cell membranes, Membrane; conditions: pig, llc-pk1, 400 µM
[4] = molecular target: T1, ATP-dependent translocase ABCB1; assay: TP_TRANSPORTER: inhibition of Digoxin transepithelial transport (basal to apical) (Digoxin: 0.1 uM, Itraconazole: 100 uM) in MDR1-expressing LLC-PK1 cells; format: functional, cell-based; conditions: pig, llc-pk1, 100 µM
[5] = molecular target: T1, ATP-dependent translocase ABCB1; assay: TP_TRANSPORTER: inhibition of Vinblastine transepithelial transport (basal to apical) (Vinblastine: 0.1 uM, Itraconazole: 100 uM) in MDR1-expressing LLC-PK1 cells; format: functional, cell-based; conditions: pig, llc-pk1, 100 µM
[6] = molecular target: T1, ATP-dependent translocase ABCB1; assay: TP_TRANSPORTER: inhibition of Doxorubicin transepithelial transport (basal to apical) (Doxorubicin: 0.1 uM, Itraconazole: 100 uM) in MDR1-expressing LLC-PK1 cells; format: functional, cell-based; conditions: pig, llc-pk1, 100 µM
[7] = molecular target: T1, ATP-dependent translocase ABCB1; assay: TP_TRANSPORTER: inhibition of Azidopine photoaffinity labelling in membranes from MDR1-expressing LLC-PK1 cells; format: functional, cell membranes, Membrane; conditions: pig
[8] = molecular target: T1, ATP-dependent translocase ABCB1; assay: TP_TRANSPORTER: inhibition of Azidopine photoaffinity labelling (Azidopine: 0.4 uM, Vinblastine: 400 uM) in membranes from MDR1-expressing LLC-PK1 cells; format: functional, cell membranes, Membrane; conditions: pig, llc-pk1, 400 µM

Activity [1]: inhibitor [+] | Activity [2]: substrate [+]
SMILES: COc1cccc2c1C(=O)c1c(O)c3c(c(O)c1C2=O)C[C@@](O)(C(C)=O)C[C@@H]3O[C@H]1C[C@H](N)[C@H](O)[C@H](C)O1 [DAUNORUBICIN]

Activity [3]: inhibitor [+]
SMILES: COc1cccc2c1C(=O)c1c(O)c3c(c(O)c1C2=O)C[C@@](O)(C(=O)CO)C[C@@H]3O[C@H]1C[C@H](N)[C@H](O)[C@H](C)O1 [DOXORUBICIN]

Activity [4]: inhibitor [+] | Activity [5]: inhibitor [+] | Activity [6]: inhibitor [+] | Activity [7]: inhibitor [+]
SMILES: CCC(C)n1ncn(-c2ccc(N3CCN(c4ccc(OCC5COC(Cn6cncn6)(c6ccc(Cl)cc6Cl)O5)cc4)CC3)cc2)c1=O (stereo not drawn) [ITRACONAZOLE]

Activity [8]: inhibitor [+]
SMILES: CC[C@]1(O)C[C@@H]2CN(CCc3c([nH]c4ccccc34)[C@@](C(=O)OC)(c3cc4c(cc3OC)N(C)[C@H]3[C@@](O)(C(=O)OC)[C@H](OC(C)=O)[C@]5(CC)C=CCN6CC[C@]43[C@@H]65)C2)C1 [VINBLASTINE]
